Reference: ChEMBL document CHEMBL1146011, “Diaryl substituted pyrrolidinones and pyrrolones as 5-HT2C inhibitors: synthesis and biological evaluation” (Bioorg Med Chem Lett, 2006)

Legend:
[1] = target: 5-hydroxytryptamine receptor 2B (Homo sapiens, UniProt P41595); assay: Binding affinity to human 5HT2B receptor
[2] = Ratio of drug level in brain against plasma in orally dosed rat; format: ADME, organism-based; details: po, read-out: BPR
[3] = Bioavailability in orally dosed rat; format: ADME, organism-based; details: in vivo, po
[4] = target: T1, 5-hydroxytryptamine receptor 2C (Homo sapiens, UniProt P28335); assay: Binding affinity to human 5HT2C receptor
T1 sequence (P28335 whole entry): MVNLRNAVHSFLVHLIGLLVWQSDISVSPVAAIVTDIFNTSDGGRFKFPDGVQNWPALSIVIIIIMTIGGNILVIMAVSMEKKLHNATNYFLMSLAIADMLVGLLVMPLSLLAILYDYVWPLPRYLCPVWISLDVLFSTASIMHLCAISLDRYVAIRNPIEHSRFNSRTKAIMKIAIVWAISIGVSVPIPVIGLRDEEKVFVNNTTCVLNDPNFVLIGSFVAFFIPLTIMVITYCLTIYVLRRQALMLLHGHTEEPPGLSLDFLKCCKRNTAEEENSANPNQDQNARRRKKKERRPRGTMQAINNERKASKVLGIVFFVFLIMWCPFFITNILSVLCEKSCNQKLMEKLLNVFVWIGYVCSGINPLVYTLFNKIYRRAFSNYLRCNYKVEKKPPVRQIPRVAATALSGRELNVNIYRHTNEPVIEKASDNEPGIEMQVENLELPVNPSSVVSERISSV

[5] = Plasma clearance in orally dosed rat; format: ADME, organism-based; details: po
[6] = target: 5-hydroxytryptamine receptor 2A (Homo sapiens, UniProt P28223); assay: Binding affinity to human 5HT2A receptor
Sequence of 5-hydroxytryptamine receptor 2A (P28223 whole entry): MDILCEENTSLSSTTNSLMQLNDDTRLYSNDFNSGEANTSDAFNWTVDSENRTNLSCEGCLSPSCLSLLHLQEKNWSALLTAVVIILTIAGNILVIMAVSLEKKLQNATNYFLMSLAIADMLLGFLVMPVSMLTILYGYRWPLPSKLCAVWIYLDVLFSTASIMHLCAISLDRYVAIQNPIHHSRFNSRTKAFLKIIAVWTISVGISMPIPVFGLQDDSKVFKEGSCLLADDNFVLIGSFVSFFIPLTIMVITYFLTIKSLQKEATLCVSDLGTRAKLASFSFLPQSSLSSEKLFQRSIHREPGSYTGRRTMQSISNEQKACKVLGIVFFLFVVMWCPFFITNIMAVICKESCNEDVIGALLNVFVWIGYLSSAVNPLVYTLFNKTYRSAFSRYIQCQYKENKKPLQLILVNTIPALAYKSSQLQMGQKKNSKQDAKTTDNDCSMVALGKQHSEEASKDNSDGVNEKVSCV

[7] = tested on: Rattus norvegicus; assay: Volume of distribution in orally dosed rat; format: ADME, organism-based; details: in vivo, po
[8] = Half life in orally dosed rat; format: ADME, organism-based; details: in vivo, po
[9] = tested on: Rattus norvegicus; assay: Drug level in orally dosed rat brain; format: ADME, organism-based; details: in vivo, po

Sequence of 5-hydroxytryptamine receptor 2B (P41595 whole entry): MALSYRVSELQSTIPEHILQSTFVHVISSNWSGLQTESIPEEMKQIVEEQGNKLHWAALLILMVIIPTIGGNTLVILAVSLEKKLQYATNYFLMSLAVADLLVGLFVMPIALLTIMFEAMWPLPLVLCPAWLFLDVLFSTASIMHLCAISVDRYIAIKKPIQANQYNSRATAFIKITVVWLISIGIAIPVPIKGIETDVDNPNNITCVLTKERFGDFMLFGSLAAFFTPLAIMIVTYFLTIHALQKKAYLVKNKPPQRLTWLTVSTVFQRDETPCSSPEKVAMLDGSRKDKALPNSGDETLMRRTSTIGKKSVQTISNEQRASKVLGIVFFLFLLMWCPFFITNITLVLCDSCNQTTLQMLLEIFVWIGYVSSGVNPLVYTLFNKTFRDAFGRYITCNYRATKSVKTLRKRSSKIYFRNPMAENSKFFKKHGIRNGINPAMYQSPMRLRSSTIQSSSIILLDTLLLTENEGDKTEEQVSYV

SMILES	Ki [1]	Ki [4]	Ki [6]	also measured
COc1ccc(N2CCC(C)(c3ccc(Cl)c(Cl)c3)C2=O)cc1OCCN1CCCCC1 (stereo not drawn)	1000 nM	5.01 nM	631 nM	Kp [2]: 5; bioavailability [3]: 13%; CL/F [5]: 65 mL/min/kg
COc1ccc(N2CC=C(c3ccc(C)cc3)C2=O)cc1OCCN1CCCCC1	> 1000 nM	0.316 nM	> 1000 nM	
COc1ccc(N2CCC(c3ccc(Cl)c(Cl)c3)C2=O)cc1OCCN1CCC(C)CC1 (stereo not drawn)	2000 nM	12.6 nM	398 nM	
O=C1C(c2ccc(Cl)c(Cl)c2)CCN1c1ccc(Cl)c(OCCN2CCCCC2)c1 (stereo not drawn)	> 1580 nM	100 nM	> 1000 nM	
COc1ccc(N2CC=C(c3ccc(OC)c(OCCN4CCCCC4)c3)C2=O)cc1F	> 1580 nM	6.31 nM	> 3160 nM	
COc1ccc(N2CC=C(c3ccc(Cl)c(F)c3)C2=O)cc1OCCN1CCC(C)CC1	> 2000 nM	7.94 nM	> 1260 nM	
COc1ccc(N2CC=C(c3ccc(C)cc3)C2=O)cc1OCCN1CCC(C)CC1	1580 nM	1.58 nM	631 nM	
COc1ccc(N2CC=C(c3ccc(Cl)c(Cl)c3)C2=O)cc1OCCN1CCOCC1	> 1580 nM	6.31 nM	3980 nM	
COc1ccc(N2CC=C(c3ccc(Cl)c(Cl)c3)C2=O)cc1OCCN1CCCC1	> 1580 nM	3.98 nM	631 nM	
COc1ccc(N2CC=C(c3ccc(F)cc3)C2=O)cc1OCCN1CCC(C)CC1	1260 nM	3.16 nM	251 nM	
COc1ccc(N2CCC(c3ccc(Cl)c(Cl)c3)C2=O)cc1OCCN1CCC(C)(C)CC1 (stereo not drawn)	> 1000 nM	12.6 nM	398 nM	
COc1ccc(N2CCC(c3ccc(Cl)c(Cl)c3)C2=O)cc1OCCN1CCCCC1 (stereo not drawn)	1580 nM	12.6 nM	501 nM	
COc1ccc(N2CC=C(c3ccc(Br)cc3)C2=O)cc1OCCN1CCC(C)CC1		3.98 nM	398 nM	Log Ki [1]: > -6.2
COc1ccc(N2CC=C(c3cccc(Cl)c3)C2=O)cc1OCCN1CCC(C)CC1	501 nM	5.01 nM	794 nM	
COc1ccc(N2CC=C(c3ccc(C(F)(F)F)cc3)C2=O)cc1OCCN1CCCCC1	> 1000 nM	12.6 nM	> 1260 nM	
COc1ccc(N2CC=C(c3ccc(Cl)cc3)C2=O)cc1OCCN1CCCCC1	> 1580 nM	7.94 nM	1000 nM	
COc1ccc(N2CC=C(c3cccc(F)c3)C2=O)cc1OCCN1CCCCC1	501 nM	0.794 nM	631 nM	
COc1ccc(N2CC=C(c3ccc(Cl)c(Cl)c3)C2=O)cc1OCCN1CCC(F)(F)CC1	> 5010 nM	7.94 nM	> 5010 nM	
CC(=O)Nc1ccc(N2CCC(c3ccc(Cl)c(Cl)c3)C2=O)cc1OCCN1CCCCC1 (stereo not drawn)	> 1580 nM	316 nM	> 3160 nM	
COc1ccc(C2(C)CCN(c3ccc(Cl)c(Cl)c3)C2=O)cc1OCCN1CCCCC1 (stereo not drawn)		10 nM	501 nM	Log Ki [1]: > -6.3
COc1ccc(N2CC=C(c3ccc(Cl)c(Cl)c3)C2=O)cc1OCCN1CCC(C)CC1	> 794 nM	3.16 nM	794 nM	Vdss [7]: 4 L; Kp [2]: 7.2; bioavailability [3]: 52%; CL/F [5]: 11 mL/min/kg; half-life [8]: 4.5 h; Drug uptake [9]: 1058 ng/g
COc1ccc(N2CCC(c3ccc(OC)c(OCCN4CCCCC4)c3)C2=O)cc1 (stereo not drawn)	> 10000 nM	100 nM	> 10000 nM	
COc1ccc(N2CCC(c3cccc(Cl)c3)C2=O)cc1OCCN1CCCCC1 (stereo not drawn)	> 1000 nM	25.1 nM	> 1000 nM	
COc1ccc(N2CCC(C)(c3ccc(Cl)c(Cl)c3)C2=O)cc1OCCN1CCC(C)CC1 (stereo not drawn)	> 794 nM	5.01 nM		Kp [2]: 1.8; bioavailability [3]: 50%; CL/F [5]: 20 mL/min/kg; Log Ki [6]: > -6.3
COc1ccc(C2=CCN(c3cccc(F)c3)C2=O)cc1OCCN1CCCCC1	501 nM	6.31 nM	1000 nM	
O=C1C(c2ccc(Cl)c(Cl)c2)CCN1c1ccc(OC(F)(F)F)c(OCCN2CCCCC2)c1 (stereo not drawn)	1580 nM	794 nM	3160 nM	

SMILES	Ki [1]	Ki [4]	Ki [6]	also measured
COc1ccc(N2CC=C(c3ccc(F)cc3)C2=O)cc1OCCN1CCCCC1	1000 nM	6.31 nM	398 nM	
COc1ccc(N2CC=C(c3ccc(Br)cc3)C2=O)cc1OCCN1CCCCC1	200 nM	1.26 nM	158 nM	
COc1ccc(C2CCN(c3ccc(Cl)c(Cl)c3)C2=O)cc1OCCN1CCCCC1 (stereo not drawn)	398 nM	10 nM	794 nM	
Cc1ccc(N2CC=C(c3ccc(Cl)c(Cl)c3)C2=O)cc1OCCN1CCCCC1	> 2000 nM	126 nM	> 1260 nM	
COc1ccc(N2CC=C(c3cccc(C(F)(F)F)c3)C2=O)cc1OCCN1CCCCC1	> 794 nM	5.01 nM	794 nM	
O=C1C(c2ccc(Cl)c(Cl)c2)=CCN1c1ccc(Cl)c(OCCN2CCCCC2)c1	> 1580 nM	63.1 nM	> 1260 nM	
COc1ccc(N2CCC(c3ccc(OC)c(OCCN4CCCCC4)c3)C2=O)cc1Cl (stereo not drawn)	1580 nM	20 nM	> 2000 nM	
CC(=O)Nc1ccc(N2CC=C(c3ccc(Cl)c(Cl)c3)C2=O)cc1OCCN1CCCCC1	> 1580 nM	50.1 nM	> 1580 nM	
COc1ccc(N2CC=C(c3ccc(OC)c(OCCN4CCCCC4)c3)C2=O)cc1	> 2000 nM	10 nM	> 5010 nM	
COc1ccc(N2CC=C(c3ccc(Cl)c(Cl)c3)C2=O)cc1OCCN1CCC(C(C)C)CC1	> 1000 nM	12.6 nM	> 794 nM	
COc1ccc(N2CC=C(c3ccc(Cl)c(Cl)c3)C2=O)cc1OCCN1CCC(C)(C)CC1	316 nM	3.98 nM	> 6310 nM	
O=C1C(c2ccc(Cl)c(Cl)c2)=CCN1c1ccc(OC(F)(F)F)c(OCCN2CCCCC2)c1	> 3160 nM	> 1260 nM	> 10000 nM	
COc1ccc(C2=CCN(c3ccc(Cl)c(Cl)c3)C2=O)cc1OCCN1CCCCC1	126 nM	5.01 nM	1260 nM	
COc1ccc(N2CCC(c3ccc(Cl)c(Cl)c3)C2=O)cc1OCCN1CCC(C(C)C)CC1 (stereo not drawn)	> 1000 nM	25.1 nM	398 nM	
COc1ccc(N2CCC(c3ccc(F)cc3)C2=O)cc1OCCN1CCCCC1 (stereo not drawn)	> 5010 nM	100 nM	> 2510 nM	
COc1ccc(N2CC=C(c3ccc(C(F)(F)F)cc3)C2=O)cc1OCCN1CCC(C)CC1	> 10000 nM	12.6 nM	1580 nM	
O=C1C(c2ccc(Cl)c(Cl)c2)=CCN1c1ccc(N2CCCC2)c(OCCN2CCCCC2)c1	> 10000 nM	200 nM	> 1260 nM	
COc1ccc(C2=C(C)CN(c3ccc(Cl)c(Cl)c3)C2=O)cc1OCCN1CCCCC1	200 nM	126 nM	501 nM	
COc1ccc(N2CCC(c3ccc(OC)c(OCCN4CCCCC4)c3)C2=O)cc1F (stereo not drawn)	> 1580 nM	15.8 nM	> 1000 nM	
COc1ccc(N2CC=C(c3ccc(OC)c(OCCN4CCCCC4)c3)C2=O)cc1Cl		5.01 nM	> 6310 nM	Log Ki [1]: > -6.4
COc1ccc(N2CCC(c3cccc(F)c3)C2=O)cc1OCCN1CCCCC1 (stereo not drawn)	> 1580 nM	100 nM	> 7940 nM	
COc1ccc(C2=C(C)CN(c3ccc(Cl)cc3)C2=O)cc1OCCN1CCCCC1	501 nM	200 nM	398 nM	
COc1ccc(N2CC=C(c3ccc(Cl)cc3)C2=O)cc1OCCN1CCC(C)CC1	> 1580 nM	6.31 nM	631 nM	
COc1ccc(C2CCN(c3cccc(F)c3)C2=O)cc1OCCN1CCCCC1 (stereo not drawn)	> 794 nM	20 nM	> 1260 nM	
COc1ccc(N2CC=C(c3cccc(Cl)c3)C2=O)cc1OCCN1CCCCC1	631 nM	2.51 nM	631 nM	
Cc1ccc(N2CCC(c3ccc(Cl)c(Cl)c3)C2=O)cc1OCCN1CCCCC1 (stereo not drawn)	> 1580 nM	398 nM	> 1580 nM	
